Laboratory results published in PubChem BioAssay AID493202 (Sanford-Burnham Center for Chemical Genomics, 2011).
Activity calls are given as the source filed them.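 The calls were made as follows: active = mean EC50 below 10 µM; inactive = the rest.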

Target: Type-1 angiotensin II receptor (Homo sapiens) (UniProt P30556)
Assay: AGTR1 activation selectivity check – cell-based, CHO-K1 PathHunter, luminescence, set 4, selectivity assay for APJ agonist project, SAR follow-up (AID 493202)
Conditions: CHO-K1 AGTR1 PathHunter beta-arrestin, 90 min

Sequence of Type-1 angiotensin II receptor (Homo sapiens) (P30556 whole entry, looked up): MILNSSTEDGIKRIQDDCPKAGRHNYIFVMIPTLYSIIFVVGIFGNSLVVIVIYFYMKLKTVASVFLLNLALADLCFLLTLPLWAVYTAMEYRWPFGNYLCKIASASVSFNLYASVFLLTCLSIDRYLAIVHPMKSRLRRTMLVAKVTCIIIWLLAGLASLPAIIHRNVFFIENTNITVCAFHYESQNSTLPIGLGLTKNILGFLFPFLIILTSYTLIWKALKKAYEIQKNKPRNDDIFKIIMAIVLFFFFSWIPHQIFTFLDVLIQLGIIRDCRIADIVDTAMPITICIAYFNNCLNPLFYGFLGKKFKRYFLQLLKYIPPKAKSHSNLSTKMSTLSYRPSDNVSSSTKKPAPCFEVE

`CC1=CC(=O)C(C(C)C)=C/C1=N/OS(=O)(=O)c1ccc(C(F)(F)F)cc1` was tested, and the EC50 was > 79 µM (inactive).
With `CC1=CC(=O)C(C(C)C)=C/C1=N/OS(=O)(=O)c1ccc(OC(F)(F)F)cc1` the EC50 was > 79 µM (inactive).
In the case of `CC1=CC(=O)C(C(C)C)=C/C1=N/OS(=O)(=O)c1cccnc1`, the EC50 was > 79 µM (inactive).
`CC1=CC(=O)C(C(C)C)=C/C1=N/OS(=O)(=O)c1ccc(C(C)(C)C)cc1` was tested, and the EC50 was > 79 µM (inactive).
For `O=S(=O)(Nc1cc(Cl)c(O)c(Cl)c1)c1ccccc1`, the EC50 was > 79 µM (inactive).
With `COC(=O)c1cc(NS(=O)(=O)c2ccccc2)ccc1O` the EC50 was > 79 µM (inactive).
With `Cc1cc(O)c(C(C)C)cc1NS(=O)(=O)c1ccccc1` the EC50 was > 79 µM (inactive).
